These are literature values, as cited in patent US8735584B2 (Merck Patent GmbH, priority 2008, dated 2014).

Structures are written as SMILES.

In data set [1] the test system is tumor cells of various origins / normal human cells. Particulars: in vitro; cited from earlier work.
Data set [2] relates to human tumor xenograft. Particulars: human tumor xenograft model; several intermittent dosing schedules; cited from earlier work.

Regarding `Nc1nc(Nc2ccc(S(N)(=O)=O)cc2)nn1C(=O)c1c(F)cccc1F` [JNJ-7706621], the “less effective at inhibiting normal human cell growth than tumor cell proliferation” value in data set [1] was “about 10 fold”. In addition, in data set [2], the antitumor activity result is “significant antitumor activity”.
